Source: patent publication US9663464B2, “Carbazole derivatives acting on 5-HT7 receptor” (KOREA INSTITUTE OF SCIENCE AND TECHNOLOGY, priority 2015, dated 2017)
Structures can show the parent of a compound that is named as a salt.

Columns and labels:
[1] = molecular target: T1, human gene recombinant 5-HT7 receptor expressed in CHO cells (Homo sapiens, UniProt P34969); assay: Binding affinity for the 5-HT7 serotonin receptor ([3H]LSD radioligand)
T1 construct: expressed in transfected cells; host or cells: CHO cells (membrane preparation)
Procedure: In this example, the human gene recombinant 5-HT7 receptor expressed in CHO cells was used. 1 nM [^3H]LSD, 5-HT7 receptor membrane (15 μg/well), a test drug, 10 mM MgCl2, 50 mM Tris-HCl buffer (pH 7.4) containing 0.1 mM EDTA, etc. were added to a vessel until the final volume reached 0.25 ml. The test drug was used at various concentrations. The mixture was cultured at 25° C. for 90 min. The culture was rapidly filtered through a Whatman GF/C glass fiber filter, which had been previously wetted with 0.3% polyethyleneimine using a Brandel harvester, to quench the reaction. The reaction mixture was washed with cold 50 mM Tris-HCl buffer. The filter was covered with MeltiLex, sealed in a sample bag, and dried in an oven. Counting was performed using MicroBeta (Wallac) and nonspecific binding was measured in the presence of […]. The K value of the test drug was obtained from nonlinear regression analysis (GraphPad Prism Program, San Diego, USA) of isotherms obtained by repeatedly performing the experiment on the drug at 10-11 stage concentrations in two test tubes (each twice).
The % inhibition values of the inventive compounds having different Y structures at a concentration of 10 μM against the 5-HT7 serotonin receptor were measured. Further, the binding affinity (Ki) values of the inventive compounds having different Y structures at a concentration of 10 μM for the 5-HT7 serotonin receptor were measured.

5-HT1E = 5-HT1E (Homo sapiens, UniProt P28566); assay: 5-HT1E receptor inhibition (Table 1); format: binding
5-HT2C = molecular target: T2, 5-HT2C (Homo sapiens, UniProt P28335); assay: 5-HT2C receptor inhibition/binding (Tables 1-3)
T2 sequence (P28335 33-458): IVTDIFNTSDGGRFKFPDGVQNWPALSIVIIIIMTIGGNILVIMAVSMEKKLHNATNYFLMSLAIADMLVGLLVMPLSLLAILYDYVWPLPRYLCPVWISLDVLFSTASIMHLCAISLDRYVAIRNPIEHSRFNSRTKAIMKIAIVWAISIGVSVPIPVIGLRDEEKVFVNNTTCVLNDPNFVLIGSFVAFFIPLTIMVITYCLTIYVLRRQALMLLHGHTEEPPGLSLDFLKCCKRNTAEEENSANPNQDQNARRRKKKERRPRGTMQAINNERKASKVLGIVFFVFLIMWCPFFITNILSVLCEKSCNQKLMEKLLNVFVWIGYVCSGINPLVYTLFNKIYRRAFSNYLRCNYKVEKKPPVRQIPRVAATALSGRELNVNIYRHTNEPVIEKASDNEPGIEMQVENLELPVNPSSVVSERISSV

5-HT6 = 5-HT6 (Homo sapiens, UniProt P50406); assay: 5-HT6 receptor inhibition/binding (Tables 2-3); settings: 10 μM
5-HT1A = molecular target: T3, 5-HT1A (Homo sapiens, UniProt P08908); assay: 5-HT1A receptor inhibition (Table 3); format: binding
T3 sequence (P08908 1-422): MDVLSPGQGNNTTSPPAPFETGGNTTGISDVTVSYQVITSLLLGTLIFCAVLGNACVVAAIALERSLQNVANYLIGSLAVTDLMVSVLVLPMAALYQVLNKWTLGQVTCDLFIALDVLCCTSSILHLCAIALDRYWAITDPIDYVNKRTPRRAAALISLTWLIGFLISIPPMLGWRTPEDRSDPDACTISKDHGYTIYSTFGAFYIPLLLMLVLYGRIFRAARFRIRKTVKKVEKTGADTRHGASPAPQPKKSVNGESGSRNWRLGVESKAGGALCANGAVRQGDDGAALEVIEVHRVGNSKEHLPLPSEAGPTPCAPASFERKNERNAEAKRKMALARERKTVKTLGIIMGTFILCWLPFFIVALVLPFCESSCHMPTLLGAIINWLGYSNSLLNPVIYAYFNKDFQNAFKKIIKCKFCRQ

T1 sequence (P34969 whole entry): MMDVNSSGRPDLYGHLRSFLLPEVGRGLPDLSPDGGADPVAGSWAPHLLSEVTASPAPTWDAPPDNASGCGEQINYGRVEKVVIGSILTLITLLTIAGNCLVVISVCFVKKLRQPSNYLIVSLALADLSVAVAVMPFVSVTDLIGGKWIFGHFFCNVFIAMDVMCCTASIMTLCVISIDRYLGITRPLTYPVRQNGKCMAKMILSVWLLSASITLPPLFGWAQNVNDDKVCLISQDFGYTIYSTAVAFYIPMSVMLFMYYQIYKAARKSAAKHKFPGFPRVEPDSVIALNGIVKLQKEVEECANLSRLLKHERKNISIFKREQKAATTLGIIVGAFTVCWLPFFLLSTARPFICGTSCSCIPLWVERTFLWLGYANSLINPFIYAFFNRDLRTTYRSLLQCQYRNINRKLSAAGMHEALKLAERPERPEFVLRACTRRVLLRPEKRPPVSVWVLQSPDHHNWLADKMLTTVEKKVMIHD
Chain of 5-HT6 (P50406 whole entry, species assumed): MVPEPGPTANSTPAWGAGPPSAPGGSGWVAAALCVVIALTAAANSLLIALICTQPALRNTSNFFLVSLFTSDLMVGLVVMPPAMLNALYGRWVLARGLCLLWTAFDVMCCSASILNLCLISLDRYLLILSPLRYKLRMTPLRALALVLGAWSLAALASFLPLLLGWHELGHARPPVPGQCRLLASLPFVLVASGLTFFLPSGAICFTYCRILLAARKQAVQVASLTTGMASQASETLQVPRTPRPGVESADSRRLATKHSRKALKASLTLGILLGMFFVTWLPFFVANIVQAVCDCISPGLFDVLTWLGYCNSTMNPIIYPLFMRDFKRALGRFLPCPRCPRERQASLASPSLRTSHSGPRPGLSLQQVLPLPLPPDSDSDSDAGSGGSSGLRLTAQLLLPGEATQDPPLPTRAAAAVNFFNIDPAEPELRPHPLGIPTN
Chain of 5-HT1E (P28566 whole entry, species assumed): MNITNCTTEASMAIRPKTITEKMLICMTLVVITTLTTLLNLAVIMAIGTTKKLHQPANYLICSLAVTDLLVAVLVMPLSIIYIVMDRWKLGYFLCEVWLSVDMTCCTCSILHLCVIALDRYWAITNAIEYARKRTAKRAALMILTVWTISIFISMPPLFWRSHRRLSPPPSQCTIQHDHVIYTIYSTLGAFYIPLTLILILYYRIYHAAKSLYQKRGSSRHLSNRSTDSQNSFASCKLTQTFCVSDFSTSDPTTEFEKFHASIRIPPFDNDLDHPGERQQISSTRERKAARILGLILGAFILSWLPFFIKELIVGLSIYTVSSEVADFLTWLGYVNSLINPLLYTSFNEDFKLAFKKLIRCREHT

Row | Compound | Ki [1] | inhibition at 10 µM [1] | inhibition at 10 µM (5-HT1E) | Ki (5-HT2C) | inhibition at 10 µM (5-HT2C) | inhibition at 10 µM (5-HT6) | inhibition at 10 µM (5-HT1A)
1 | CCCCN(C)CCCCCC(=O)n1c2ccccc2c2ccccc21 [Example 2.1, 6-(Butyl(methyl)amino)-1-(9H-carbazol-9-yl)hexan-1-one hydrochloride] | 680 nM | 82.8% | 51.3% | 207 nM | 87.4% | – | –
2 | CN(CCCCCC(=O)n1c2ccccc2c2ccccc21)Cc1ccccc1 [Example 2.2, 6-(Benzyl)methyl)amino)-1-(9H-carbazol-9-yl)hexan-1-one hydrochloride] | – | 92% | 10.2% | 1320 nM | 54.6% | – | –
3 | O=C(CCCCCN1CCCC1)n1c2ccccc2c2ccccc21 [Example 2.3, 1-(9H-carbazol-9-yl)-6-(pyrrolidin-1-yl)hexan-1-one hydrochloride] | 1050 nM | 74% | 13.9% | 764 nM | 76.7% | – | –
4 | CC1CCCN(CCCCCC(=O)n2c3ccccc3c3ccccc32)C1 (stereo not drawn) [Example 2.5, 1-(9H-carbazol-9-yl)-6-(3-methylpiperidin-1-yl)hexan-1-one hydrochloride] | 550 nM | 84.6% | -15.3% | 486 nM | 86.6% | – | –
5 | CC1CC(C)CN(CCCCCC(=O)n2c3ccccc3c3ccccc32)C1 (stereo not drawn) [Example 2.6, 1-(9H-carbazol-9-yl)-6-(3,5-dimethylpiperidin-1-yl)hexan-1-one hydrochloride] | 833 nM | 77.2% | -21.9% | 454 nM | 80.6% | – | –
6 | O=C(CCCCCN1CCCCCC1)n1c2ccccc2c2ccccc21 [Example 2.7, 6-(Azepan-1-yl)-1-(9H-carbazol-9-yl)hexan-1-one hydrochloride] | 616 nM | 86% | 1.8% | 411 nM | 77.2% | – | –
7 | O=C(CCCCCN1CCN(Cc2ccccc2)CC1)n1c2ccccc2c2ccccc21 [Example 2.13, 6-(4-Benzylpiperazin-1-yl)-1-(9H-carbazol-9-yl)hexan-1-one hydrochloride] | 127 nM | 94.8% | – | – | 72.3% | 57.9% | 76.8%
8 | COc1ccccc1N1CCN(CCCCCC(=O)n2c3ccccc3c3ccccc32)CC1 [Example 2.16, 1-(9H-carbazol-9-yl)-6-(4-(2-methoxyphenyl)piperazin-1-yl)hexan-1-one] | 74 nM | 102% | – | – | 55.8% | 30.7% | 108%
9 | CCCCN(C)CCCCC(=O)n1c2ccccc2c2ccccc21 [Example 2.17, 5-(Butyl(methyl)amino)-1-(9H-carbazol-9-yl)pentan-1-one hydrochloride] | 1280 nM | 50% | 73.9% | – | – | – | –
10 | CN(CCCCC(=O)n1c2ccccc2c2ccccc21)Cc1ccccc1 [Example 2.18, 5-(Benzyl(methyl)amino)-1-(9H-carbazol-9-yl)pentan-1-one hydrochloride] | 513 nM | 83.1% | -22.5% | – | 32.6% | – | –
11 | O=C(CCCCN1CCCC1)n1c2ccccc2c2ccccc21 [Example 2.19, 1-(9H-carbazol-9-yl)-5-(pyrrolidin-1-yl)pentan-1-one hydrochloride] | 2160 nM | 57.4% | 16.3% | – | 45% | – | –
12 | CC1CCN(CCCCC(=O)n2c3ccccc3c3ccccc32)CC1 [Example 2.20, 1-(9H-carbazol-9-yl)-5-(4-methylpiperidin-1-yl)pentan-1-one hydrochloride] | 592 nM | 80.2% | -19.3% | – | 44.4% | – | –
13 | CC1CCCN(CCCCC(=O)n2c3ccccc3c3ccccc32)C1 (stereo not drawn) [Example 2.21, 1-(9H-carbazol-9-yl)-5-(3-methylpiperidin-1-yl)pentan-1-one hydrochloride] | 883 nM | 69.4% | -6% | – | 50% | – | –
14 | CC1CC(C)CN(CCCCC(=O)n2c3ccccc3c3ccccc32)C1 (stereo not drawn) [Example 2.22, 1-(9H-carbazol-9-yl)-5-(3,5-dimethylpiperidin-1-yl)pentan-1-one hydrochloride] | 1400 nM | 67.6% | -10.5% | 852 nM | 52.1% | – | –
15 | O=C(CCCCN1CCCCCC1)n1c2ccccc2c2ccccc21 [Example 2.23, 5-(Azepan-1-yl)-1-(9H-carbazol-9-yl)pentan-1-one hydrochloride] | 949 nM | 77% | -11.7% | 1090 nM | 55% | – | –
16 | CC(=O)N1CCN(CCCCC(=O)n2c3ccccc3c3ccccc32)CC1 [Example 2.27, 5-(4-Acetylpiperazin-1-yl)-1-(9H-carbazol-9-yl)pentan-1-one hydrochloride] | 1070 nM | 64.6% | – | – | 6.6% | 13.8% | 25.4%
17 | O=C(CCCCN1CCN(Cc2ccccc2)CC1)n1c2ccccc2c2ccccc21 [Example 2.29, 5-(4-Benzylpiperazinyl)-1-(9H-carbazol-9-yl)pentan-1-one hydrochloride] | 282 nM | 92% | – | – | 38% | 57.4% | 66.5%
18 | COc1ccccc1N1CCN(CCCC(=O)n2c3ccccc3c3ccccc32)CC1 [Example 2.34, 1-(9H-carbazol-9-yl)-4-(4-(2-methoxyphenyl)piperazin-1-yl)butan-1-one] | 33 nM | 97.7% | – | – | 74.2% | 51.5% | 104%
19 | CCCCN(C)CCCCCCn1c2ccccc2c2ccccc21 [Example 2.35, N-Butyl-6-(9H-carbazol-9-yl)-N-methylhexane-1-amine] | 511 nM | 70.7% | 55.7% | – | 59.4% | – | –
20 | CN(CCCCCCn1c2ccccc2c2ccccc21)Cc1ccccc1 [Example 2.36, N-Benzyl-6-(9H-carbazol-9-yl)-N-methylhexane-1-amine] | 1980 nM | 64% | -13.2% | – | – | – | –
21 | c1ccc2c(c1)c1ccccc1n2CCCCCCN1CCCC1 [Example 2.37, 9-(6-(Pyrrolidin-1-yl)hexyl)-9H-carbazole] | 1550 nM | 66.9% | 21.1% | – | – | – | –
22 | CC1CCN(CCCCCCn2c3ccccc3c3ccccc32)CC1 [Example 2.38, 9-(6-(4-Methylpiperidin-1-yl)hexyl)-9H-carbazole] | 597 nM | 82.9% | -9.4% | – | – | – | –
23 | CC1CCCN(CCCCCCn2c3ccccc3c3ccccc32)C1 (stereo not drawn) [Example 2.39, 9-(6-(3-Methylpiperidin-1-yl)hexyl)-9H-carbazole] | 909 nM | 75.6% | 1.5% | – | – | – | –
24 | CC1CC(C)CN(CCCCCCn2c3ccccc3c3ccccc32)C1 (stereo not drawn) [Example 2.40, 9-(6-(3,5-Dimethylpiperidin-1-yl)hexyl)-9H-carbazole] | 1600 nM | 57.7% | -7.3% | – | – | – | –
25 | c1ccc2c(c1)c1ccccc1n2CCCCCCN1CCCCCC1 [Example 2.41, 9-(6-(Azepan-1-yl)hexyl)-9H-carbazole] | 952 nM | 71.3% | 2.7% | – | – | – | –
